Results: the supplement of paper PMC10307832

Assays:
Test in all cases: relative viability (nuclei count vs DMSO), 5 days (fraction); higher = more cells survive
Shikonin + Bortezomib = compound: CC(C)=CC[C@@H](O)C1=CC(=O)c2c(O)ccc(O)c2C1=O [Shikonin] + CC(C)C[C@H](NC(=O)[C@H](Cc1ccccc1)NC(=O)c1cnccn1)B(O)O [Bortezomib] (partner 0.002 µM)
Procedure, shortened: (§1)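 Dosing by pin tool came one day after lung cancer cell lines were seeded in 1536-well plates, using either one drug or a fixed anchor-drug dose plus five library-drug doses (not always all listed) in √10 steps. After 5 days, nuclei were counted on 4× images. Relative viability is treated-well nuclei count divided by vehicle-well nuclei count, and values are medians of duplicate plates.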

[1] = compound: CC(C)N(CCCNC(=O)Nc1ccc(C(C)(C)C)cc1)C[C@H]1O[C@@H](n2ccc3c(N)ncnc32)[C@H](O)[C@@H]1O + Cc1nc(Nc2ncc(C(=O)Nc3c(C)cccc3Cl)s2)cc(N2CCN(CCO)CC2)n1 [Dasatinib] (partner 0.075 µM)
Procedure, shortened: as §1

Shikonin + Linsitinib = compound: CC(C)=CC[C@@H](O)C1=CC(=O)c2c(O)ccc(O)c2C1=O [Shikonin] + C[C@]1(O)C[C@@H](c2nc(-c3ccc4ccc(-c5ccccc5)nc4c3)c3c(N)nccn32)C1 [Linsitinib] (partner 1 µM)
Procedure, shortened: as §1

[2] = compound: CC(C)N(CCCNC(=O)Nc1ccc(C(C)(C)C)cc1)C[C@H]1O[C@@H](n2ccc3c(N)ncnc32)[C@H](O)[C@@H]1O + CC(=O)c1c(C)c2cnc(Nc3ccc(N4CCNCC4)cn3)nc2n(C2CCCC2)c1=O [Palbociclib] (partner 0.5 µM)
Procedure, shortened: as §1

Cell Line | relative viability (Shikonin + Bortezomib; first compound 0.01 µM) | relative viability (Shikonin + Bortezomib; first compound 0.1 µM) | relative viability (Shikonin + Bortezomib; first compound 0.3162 µM) | relative viability (Shikonin + Bortezomib; first compound 1 µM) | relative viability ([1]; first compound 0.08 µM) | relative viability ([1]; first compound 0.253 µM) | relative viability ([1]; first compound 0.8 µM) | relative viability ([1]; first compound 2.53 µM) | relative viability ([1]; first compound 8 µM) | relative viability (Shikonin + Linsitinib; first compound 0.01 µM) | relative viability (Shikonin + Linsitinib; first compound 0.1 µM) | relative viability (Shikonin + Linsitinib; first compound 0.3162 µM) | relative viability (Shikonin + Linsitinib; first compound 1 µM) | relative viability ([2]; first compound 0.08 µM) | relative viability ([2]; first compound 0.253 µM) | relative viability ([2]; first compound 0.8 µM) | relative viability ([2]; first compound 2.53 µM) | relative viability ([2]; first compound 8 µM)
NCI-H1437 | 0.643 | 0.562 | 0.527 | 0.46 | 0.359 | 0.37 | 0.443 | 0.337 | 0.327 | 1.28 | 1.05 | 1.23 | 1.11 | 0.299 | 0.289 | 0.288 | 0.275 | 0.307
NCI-H1651 | 0.986 | 1.06 | 0.948 | 0.928 | 0.317 | 0.373 | 0.291 | 0.386 | 0.517 | 0.974 | 1.12 | 0.996 | 1.01 | 0.497 | 0.485 | 0.49 | 0.515 | 0.518
NCI-H1666 | 0.799 | 0.879 | 0.819 | 0.729 | 0.874 | 0.796 | 0.799 | 0.813 | 0.705 | 0.835 | 0.802 | 0.807 | 0.865 | 0.64 | 0.634 | 0.659 | 0.65 | 0.656
NCI-H1734 | 1.09 | 0.999 | 0.819 | 0.909 | 0.411 | 0.415 | 0.456 | 0.485 | 0.508 | 0.839 | 0.91 | 0.939 | 0.857 | 0.328 | 0.385 | 0.353 | 0.192 | 0.365
NCI-H1755 | 0.978 | 1.1 | 1.11 | 0.98 | 0.373 | 0.44 | 0.418 | 0.428 | 0.429 | 1.04 | 1.04 | 1.05 | 1.07 | 0.437 | 0.435 | 0.45 | 0.484 | 0.498
NCI-H1792 | 1.14 | 0.858 | 1.12 | 1.04 | 0.768 | 0.785 | 0.871 | 0.71 | 0.783 | 0.511 | 0.388 | 0.658 | 0.661 | 0.631 | 0.671 | 0.773 | 0.639 | 0.643
NCI-H1915 | 1.01 | 1.15 | 1.06 | 1.06 | 0.311 | 0.34 | 0.311 | 0.323 | 0.314 | 1.05 | 1.16 | 1.15 | 1.09 | 0.517 | 0.543 | 0.517 | 0.533 | 0.525
NCI-H1975 | 0.273 | 0.365 | 0.452 | 0.363 | 0.382 | 0.337 | 0.241 | 0.341 | 0.288 | 1.11 | 0.985 | 1.01 | 0.793 | 0.557 | 0.486 | 0.205 | 0.499 | 0.497
NCI-H1993 | – | 1.19 | 1.09 | 1.03 | 0.476 | – | – | 0.768 | 0.718 | – | 0.732 | 0.681 | 0.672 | 0.616 | – | 0.57 | 0.609 | 0.65
NCI-H2009 | 1.07 | 1.11 | 0.904 | 0.289 | 0.261 | 0.281 | 0.273 | 0.288 | 0.295 | 1.23 | 1.25 | 1.14 | 0.848 | 0.148 | 0.198 | 0.184 | 0.174 | 0.255
NCI-H2023 | 1.05 | 1.21 | 1.05 | 0.97 | 0.503 | 0.668 | 0.602 | 0.662 | 0.55 | 0.655 | 0.831 | 0.687 | 0.629 | 0.458 | 0.312 | 0.634 | 0.338 | 0.329
NCI-H2085 | 1.08 | 1.02 | 1.01 | 0.922 | 0.248 | 0.218 | 0.288 | 0.232 | 0.26 | 0.797 | 0.903 | 0.867 | 0.865 | 0.47 | 0.48 | 0.524 | 0.547 | 0.481
NCI-H2087 | 0.951 | 0.888 | 1.14 | 0.898 | 0.876 | 1.03 | 0.77 | 1.04 | 0.948 | 1.27 | 1.3 | 0.927 | 0.839 | 0.29 | 0.235 | 0.276 | 0.203 | 0.269
NCI-H2126 | 1.16 | 1.23 | 1.1 | 1.19 | 0.616 | 0.582 | 0.603 | 0.601 | 0.554 | 0.71 | 0.814 | 0.752 | 0.699 | 0.358 | 0.366 | 0.355 | 0.378 | 0.371
NCI-H2228 | 0.928 | 0.877 | 1.25 | 0.981 | 0.54 | 0.457 | 0.502 | 0.416 | 0.613 | 0.629 | 0.738 | 0.7 | 0.626 | 0.789 | 0.56 | 0.643 | 0.77 | 0.701
NCI-H2347 | 1.09 | 1.11 | 0.848 | 1.23 | 0.305 | 0.305 | 0.326 | 0.296 | 0.293 | 0.976 | 0.987 | 1.07 | 0.977 | 0.423 | 0.44 | 0.407 | 0.553 | 0.404
NCI-H2405 | 0.963 | 0.974 | 1.01 | 1 | 0.193 | 0.199 | 0.242 | 0.2 | 0.241 | 0.903 | 0.982 | 1.01 | 0.914 | 0.515 | 0.539 | 0.532 | 0.546 | 0.507
NCI-H3122 | 1.06 | 1.13 | 1.01 | 1.06 | 0.696 | 0.814 | 0.559 | 0.786 | 0.739 | 1.03 | 1.07 | 1.09 | 1.03 | 0.204 | 0.162 | 0.161 | 0.198 | 0.197
